# Data: paper PMC11240139, “Exploring the antitumor potential of novel quinoline derivatives via tubulin polymerization inhibition in breast cancer; design, synthesis and molecular docking” (RSC Advances, 2024)
# Assays:
# Experiment in all cases: NCI-60 SRB cytotoxicity screen
# Format in all cases: cell-based
# [1] = tested on: NCI-H23 (non-small cell lung cancer); conditions: Homo sapiens; NCI-H23, single dose 10 μM; read-out: growth inhibition (GI%)
# [2] = tested on: SF-539 (CNS cancer); conditions: Homo sapiens; SF-539, single dose 10 μM; read-out: growth inhibition (GI%)
# [3] = tested on: MOLT-4 (leukemia); conditions: Homo sapiens; MOLT-4, single dose 10 μM; read-out: growth inhibition (GI%)
# [4] = tested on: TK-10 (renal cancer); conditions: Homo sapiens; TK-10, single dose 10 μM; read-out: growth inhibition (GI%)
# [5] = tested on: SN12C (renal cancer); conditions: Homo sapiens, single dose 10 μM, read-out: growth inhibition (GI%)
# [6] = tested on: SR (leukemia); conditions: single dose 10 μM, read-out: growth inhibition (GI%)
# [7] = tested on: CAKI-1 (renal cancer); conditions: Homo sapiens; CAKI-1, single dose 10 μM; read-out: growth inhibition (GI%)
# [8] = tested on: NCI-H522 (non-small cell lung cancer); conditions: Homo sapiens; NCI-H522, single dose 10 μM; read-out: growth inhibition (GI%)
# [9] = tested on: SNB-19 (CNS cancer); conditions: Homo sapiens; SNB-19, single dose 10 μM; read-out: growth inhibition (GI%)
# [10] = tested on: NCI-H460 (non-small cell lung cancer); conditions: Homo sapiens; NCI-H460, single dose 10 μM; read-out: growth inhibition (GI%)
# [11] = tested on: NCI/ADR-RES (ovarian cancer); conditions: Homo sapiens, single dose 10 μM, read-out: growth inhibition (GI%)
# [12] = tested on: SK-MEL-5 (melanoma); conditions: Homo sapiens; SK-MEL-5, single dose 10 μM; read-out: growth inhibition (GI%)
# [13] = tested on: M14 (melanoma); conditions: Homo sapiens; M14, single dose 10 μM; read-out: growth inhibition (GI%)
# [14] = tested on: SK-MEL-28 (melanoma); conditions: Homo sapiens; SK-MEL-28, single dose 10 μM; read-out: growth inhibition (GI%)
# [15] = tested on: MALME-3M (melanoma); conditions: Homo sapiens, single dose 10 μM, read-out: growth inhibition (GI%)
# [16] = tested on: IGROV1 (ovarian cancer); conditions: Homo sapiens, IGROV-1; IGROV1, single dose 10 μM; read-out: growth inhibition (GI%)
# [17] = tested on: BT-549 (breast cancer); conditions: Homo sapiens; BT-549, single dose 10 μM; read-out: growth inhibition (GI%)
# [18] = tested on: 786-0 (renal cancer); conditions: Homo sapiens; 786-0, single dose 10 μM; read-out: growth inhibition (GI%)
# [19] = tested on: ACHN (renal cancer); conditions: Homo sapiens, single dose 10 μM, read-out: growth inhibition (GI%)
# [20] = tested on: MDA-MB-435 (melanoma); conditions: Homo sapiens, MDA-MB-435, read-out: growth inhibition (GI%);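 further: growth inhibition in percent at a single 10 µM dose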
# [21] = tested on: MDA-MB-468 (breast cancer); conditions: Homo sapiens; MDA-MB-468, single dose 10 μM; read-out: growth inhibition (GI%)
# Protocol: The cytotoxic activity of the synthesized quinoline derivatives was determined by the national cancer institute (NCI, Bethesda, Maryland, USA) against 60 different cancer cell lines at a single high dose (10^−5 M) in the full NCI 60 cell panel using the sulforhodamine B assay for cell viability evaluation. In summary, 5 × 10^3 cells were in 96-well plate and incubated in complete media for 24 h. Cells were treated with 100 μL of media containing each newly synthesized compound. After drug exposure, cells were fixed by replacing media with 150 μL of 10% TCA and incubated at 4 °C for 1 h. The TCA solution was removed, and the cells were washed 5 times with distilled water. Aliquots of 70 μL SRB solution (0.4% w/v) were added and incubated in a dark place at room temperature for 10 min. The plates were washed 3 times with 1% acetic acid and allowed to air-dry overnight. Then, 150 μL of TRIS (10 mM) was added to dissolve protein-bound SRB stain. The absorbance was measured at 540 nm.% Cytotoxicity = [1 − (AVx/AVNC)] × 100where AVx denotes the average absorbance of the sample well and AVNC denotes the average absorbance of the negative control.
# The methodology of the NCI anticancer screening has been described in details at (http://www.dtp.nci.nih.gov). The anticancer assay was performed in full NCI 60 cell lines derived from nine tumor subpanels, including leukemia, lung, colon, CNS, melanoma, ovarian, renal, prostate, and breast cancer cell lines.
# The cell lines were first cultured for 48 h, after being exposed to a single dosage of the compound. Using the protein-binding dye sulforhodamine B dye, cell proliferation and viability were evaluated (SRB assay). The results were presented for each chemical as GI%. Compound that met NCI criteria for substantial activity were further evaluated using a five-dose experiment. The NCI60 cell lines were treated with the chemicals in this assay at five different concentration levels (0.01, 0.1, 1, 10, and 100 μM).
# [22] = tested on: MCF7 (breast cancer); conditions: Homo sapiens; MCF7, single dose 10 μM; read-out: growth inhibition (GI%)
# [23] = tested on: KM12 (colon cancer); conditions: Homo sapiens; KM12, single dose 10 μM; read-out: growth inhibition (GI%)
# [24] = tested on: SW-620 (colon cancer); conditions: Homo sapiens; SW-620, single dose 10 μM; read-out: growth inhibition (GI%)
# [25] = tested on: LOX IMVI (melanoma); conditions: Homo sapiens, single dose 10 μM, read-out: growth inhibition (GI%)
# [26] = tested on: HT29 (colon cancer); conditions: Homo sapiens, HT-29; HT29, single dose 10 μM; read-out: growth inhibition (GI%)
# [27] = tested on: A498 (renal cancer); conditions: Homo sapiens; A498, single dose 10 μM; read-out: growth inhibition (GI%)
Structure (SMILES),inhibition at 10 µM [1],inhibition at 10 µM [2],inhibition at 10 µM [3],inhibition at 10 µM [4],inhibition at 10 µM [5],inhibition at 10 µM [7],inhibition at 10 µM [8],inhibition at 10 µM [9],inhibition at 10 µM [10],inhibition at 10 µM [11],inhibition at 10 µM [12],inhibition at 10 µM [13],inhibition at 10 µM [14],inhibition at 10 µM [15],inhibition at 10 µM [16],inhibition at 10 µM [17],inhibition at 10 µM [18],inhibition at 10 µM [19],inhibition at 10 µM [20],inhibition at 10 µM [21],further results
"CCc1cccc2cc(-c3cc(-c4ccc(OC)c(OC)c4)[nH]c(=S)c3C#N)c(Cl)nc12 [Compound 5b, 4-(2-Chloro-8-ethylquinolin-3-yl)-6-(3,4-dimethoxyphenyl)-2-thioxo-1,2-dihydropyridine-3-carbonitrile]",20.3%,22%,44.3%,< 10%,21.7%,45.8%,< 10%,22.6%,< 10%,24.9%,21%,< 10%,< 10%,< 10%,< 10%,28.2%,18.7%,15.7%,< 10%,22.8%,inhibition at 10 µM [6]: < 10%; inhibition at 10 µM [22]: 26.6%; inhibition at 10 µM [23]: 19.9%; inhibition at 10 µM [24]: < 10%; inhibition at 10 µM [25]: < 10%
"CCc1cccc2cc(C=CC(=O)c3ccc(Br)cc3)c(Cl)nc12 [Compound 3e, 1-(4-Bromophenyl)-3-(2-chloro-8-ethylquinolin-3-yl)prop-2-en-1-one]",< 10%,< 10%,< 10%,< 10%,< 10%,12.8%,< 10%,< 10%,< 10%,< 10%,< 10%,< 10%,< 10%,< 10%,< 10%,< 10%,< 10%,< 10%,< 10%,< 10%,inhibition at 10 µM [26]: < 10%; inhibition at 10 µM [27]: < 10%; inhibition at 10 µM [22]: < 10%; inhibition at 10 µM [23]: < 10%; inhibition at 10 µM [24]: < 10%; inhibition at 10 µM [25]: < 10%
"CCc1cccc2cc(-c3cc(-c4ccc(Br)cc4)[nH]c(=S)c3C#N)c(Cl)nc12 [Compound 5e, 6-(4-Bromophenyl)-4-(2-chloro-8-ethylquinolin-3-yl)-2-thioxo-1,2-dihydropyridine-3-carbonitrile]",< 10%,< 10%,< 10%,< 10%,< 10%,20.1%,< 10%,< 10%,< 10%,< 10%,< 10%,11%,< 10%,< 10%,< 10%,< 10%,< 10%,< 10%,< 10%,< 10%,inhibition at 10 µM [26]: < 10%; inhibition at 10 µM [27]: < 10%; inhibition at 10 µM [22]: 19.7%; inhibition at 10 µM [23]: < 10%; inhibition at 10 µM [24]: < 10%; inhibition at 10 µM [25]: < 10%
"CCc1cccc2cc(-c3cc(-c4ccc(F)cc4)[nH]c(=S)c3C#N)c(Cl)nc12 [Compound 5d, 4-(2-Chloro-8-ethylquinolin-3-yl)-6-(4-fluorophenyl)-2-thioxo-1,2-dihydropyridine-3-carbonitrile]",16.4%,< 10%,26.8%,< 10%,< 10%,31.1%,11.8%,10.5%,< 10%,< 10%,15.3%,< 10%,< 10%,< 10%,28.6%,12.2%,< 10%,< 10%,< 10%,14%,inhibition at 10 µM [26]: < 10%; inhibition at 10 µM [27]: < 10%; inhibition at 10 µM [22]: 40.4%; inhibition at 10 µM [23]: < 10%; inhibition at 10 µM [24]: < 10%; inhibition at 10 µM [25]: 12.4%
"CCc1cccc2cc(-c3cc(-c4ccc(Br)cc4)[nH]c(=O)c3C#N)c(Cl)nc12 [Compound 4e, 6-(4-Bromophenyl)-4-(2-chloro-8-ethylquinolin-3-yl)-2-oxo-1,2-dihydropyridine-3-carbonitrile]",< 10%,< 10%,< 10%,< 10%,< 10%,17.6%,< 10%,< 10%,< 10%,< 10%,13%,< 10%,< 10%,< 10%,< 10%,27.7%,< 10%,< 10%,< 10%,< 10%,inhibition at 10 µM [26]: < 10%; inhibition at 10 µM [27]: < 10%; inhibition at 10 µM [22]: 20.6%; inhibition at 10 µM [23]: < 10%; inhibition at 10 µM [24]: < 10%; inhibition at 10 µM [25]: < 10%
